Data published in PubChem BioAssay (NCI).
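Test compounds were applied to cells in 96-well plates for 48 hours at 5 doses. The concentration for full growth arrest is given as TGI.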

What was measured:
Assay in all cases: growth of human tumour cells (NCI), 48 h
NCI/ADR-RES ovarian = tested on: NCI/ADR-RES ovarian
NCI-H226 lung = tested on: NCI-H226 lung
PC-3 prostate = tested on: PC-3 prostate
HCC-2998 colon = tested on: HCC-2998 colon
MDA-MB-231 breast = tested on: MDA-MB-231 breast
DU-145 prostate = tested on: DU-145 prostate
HOP-92 NSCLC = tested on: HOP-92 NSCLC
HS 578T breast = tested on: HS 578T breast
EKVX NSCLC = tested on: EKVX NSCLC
MDA-MB-435 = tested on: MDA-MB-435
SF-268 CNS = tested on: SF-268 CNS
SF-539 CNS = tested on: SF-539 CNS
LOX IMVI melanoma = tested on: LOX IMVI melanoma
TK-10 renal = tested on: TK-10 renal
HCT-116 colon = tested on: HCT-116 colon
KM20L2 colon = tested on: KM20L2 colon
DLD-1 colon = tested on: DLD-1 colon
XF 498 CNS = tested on: XF 498 CNS
DMS 273 small cell lung = tested on: DMS 273 small cell lung
DMS 114 small cell lung = tested on: DMS 114 small cell lung

Row | Structure (SMILES) | TGI (NCI/ADR-RES ovarian) [µM] | TGI (NCI-H226 lung) [µM] | TGI (PC-3 prostate) [µM] | TGI (HCC-2998 colon) [µM] | TGI (MDA-MB-231 breast) [µM] | TGI (DU-145 prostate) [µM] | TGI (HOP-92 NSCLC) [µM] | TGI (HS 578T breast) [µM] | TGI (EKVX NSCLC) [µM] | TGI (MDA-MB-435) [µM] | TGI (SF-268 CNS) [µM] | TGI (SF-539 CNS) [µM] | TGI (LOX IMVI melanoma) [µM] | TGI (TK-10 renal) [µM] | TGI (HCT-116 colon) [µM] | TGI (KM20L2 colon) [µM] | TGI (DLD-1 colon) [µM] | TGI (XF 498 CNS) [µM] | TGI (DMS 273 small cell lung) [µM] | TGI (DMS 114 small cell lung) [µM]
1 | O=C1C[C@H](c2ccccc2)C2(C(=O)c3ccccc3C2=O)[C@@H](c2ccccc2)C1 | > 100 | 69.1 | > 100 | > 100 | > 100 | > 100 | 90.9 | > 100 |  |  |  |  |  |  |  |  |  |  |  | 
2 | N#CSCC1COc2ccccc2O1 (configuration not stated) | > 10 | > 10 | > 10 | > 10 | > 10 | > 10 |  | > 10 | > 10 | > 10 | > 10 | > 10 | > 10 | > 10 | > 10 |  |  |  |  | 
3 | COc1ccc(C2C(C(=O)O)=C(COC(C)=O)Oc3cc4c(cc32)OCO4)cc1 (configuration not stated) |  |  |  |  |  |  | > 100 |  | > 100 |  |  |  | > 100 | > 100 | > 100 | > 100 | > 100 | > 100 | > 100 | > 100
